Experimental data published in patent US8524917B2, “6-substituted indole-3-carboxylic acid amide compounds having sphingosine-1-phosphate (S1P) receptor antagonist biological activity” (Allergan, Inc., priority 2007, dated 2013).
Where two headings read alike, the source gives them in different places.

Key:
[1] = system: perfused porcine eyes; conditions: by altering paracellular permeability, IOVS 45, 2263, 2004; cited from earlier work
[2] = biological target: human S1P3 receptor (Homo sapiens (Human), UniProt Q99500); experiment: Activation or block of activation of human S1P3 receptor, Ca+2 FLIPR assay; type: cell-based
Sequence of human S1P3 receptor (Q99500 whole entry): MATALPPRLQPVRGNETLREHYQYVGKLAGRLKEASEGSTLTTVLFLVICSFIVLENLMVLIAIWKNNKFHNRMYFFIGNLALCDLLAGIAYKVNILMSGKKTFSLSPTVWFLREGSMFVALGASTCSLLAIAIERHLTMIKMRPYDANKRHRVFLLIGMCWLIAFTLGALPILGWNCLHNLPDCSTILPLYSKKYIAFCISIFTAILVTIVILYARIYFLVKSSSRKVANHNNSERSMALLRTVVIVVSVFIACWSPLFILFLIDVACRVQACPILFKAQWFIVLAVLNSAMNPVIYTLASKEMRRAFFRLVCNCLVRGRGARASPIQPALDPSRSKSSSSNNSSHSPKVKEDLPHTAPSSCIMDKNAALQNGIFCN
Outline: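 T24 cells stably expressing human S1P3, grown in charcoal-treated FBS, dye-loaded and read on FLIPR for calcium after ligand addition in HBSS/20 mM HEPES (1 s readings for 75 s, then every 10 s for 2.5 min). Agonist or antagonist mode; S1P positive control in 4 mg/ml fatty-acid-free BSA. IC50 by Levenberg–Marquardt regression.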

[3] = T24 cells stably expressing the human S1P3 receptor, FLIPR Ca+2 response, 0.61 nM to 10,000 nM, read-out: S1P3 IC50
[4] = T24 cells stably expressing the human S1P3 receptor, value in brackets

| Compound | IC50 [2, 3] [nM] | S1P3 (% inh) [2, 4] [%] | S1P3 (% inh) [2] | further results |
| --- | --- | --- | --- | --- |
| CCCCCCCCCCCCC/C=C/[C@@H](O)[C@@H](N)COP(=O)(O)O [Compound S1P, Sphingosine-1-Phosphate] |  |  |  | decrease of outflow facility [1]: > 30% |
| CC(C)c1c(C(=O)NCc2ccc(F)c(F)c2)c2ccc(O)cc2n1Cc1ccccc1 [Compound 8, 1-Benzyl-N-(3,4-difluorobenzyl)-6-hydroxy-2-isopropyl-1H-indole-3-carboxamide] | 3100 | 71 |  |  |
| CO/N=C(\C)c1ccc2c(C(=O)NCc3ccc(F)c(F)c3)c(C(C)C)n(Cc3ccccc3)c2c1 |  |  | 147 nM (100) % | IC50 [2]: 147 nM |
| CCCNC(=O)c1ccc2c(C(=O)NCc3ccc(F)c(F)c3)c(C(C)C)n(Cc3ccccc3)c2c1 | 146 | 99 |  |  |
| CCOC(=O)c1ccc2c(C(=O)NCc3cncc(F)c3)c(C(C)C)n(Cc3ccccc3)c2c1 [Compound 44, Ethyl 1-Benzyl-3-((5-fluoropyridin-3-yl)methylcarbamoyl)-2-isopropyl-1H-indole-6-carboxylate] |  |  | 24 nM (100) % | IC50 ([2]; read-out: S1P3 IC50): 24 nM |
| CC(C)c1c(C(=O)NCc2cncc(F)c2)c2ccc(OC3CCCC3)cc2n1Cc1cccnc1 [Compound 163, 6-(Cyclopentyloxy)-N-((5-fluoropyridin-3-yl)methyl)-2-isopropyl-1-(pyridin-3-ylmethyl)-1H-indole-3-carboxamide] | 55 | 100 |  |  |
| CC(C)c1c(C(=O)NCc2ccc(F)c(F)c2)c2ccc(OC3CCCC3)cc2n1Cc1ccccc1 [Compound 16, 1-Benzyl-6-(cyclopentoxy)-N-(3,4-difluorobenzyl)-2-isopropyl-1H-indole-3-carboxamide] |  |  | 3 nM (100) 1.2 nM % | Kb [2]: 1.2 nM; IC50 ([2]; read-out: S1P3 IC50): 3 nM |
